Columns and labels:
Type in all cases: in vivo
[1] = system: diarrhea caused by a chemotherapeutic agent in Balb/c mice; experiment: Examples 230-271 (Table 4): oral CDK inhibitor, relief of diarrhea caused by a chemotherapeutic agent
In short: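 Balb/c mice, 10 per group (vehicle, chemotherapeutic agent, CDK inhibitor plus chemotherapeutic); CDK inhibitor dosed intragastrically before the chemotherapeutic agent by injection or gavage. Diarrhea graded daily.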

[2] = system: diarrhea caused by a chemotherapeutic agent in Balb/c mice; experiment: Examples 343-381 (Table 6): oral versus intravenous CDK inhibitor, relief of diarrhea caused by a chemotherapeutic agent;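 as to Relative remission rate: percent of treated mice whose diarrhea grade fell below chemotherapy-group average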
In short: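 Balb/c mice (10 per group) received the CDK inhibitor orally or by tail-vein injection, or vehicle, followed by a chemotherapeutic agent or its solvent. Diarrhea grade was scored daily.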

[3] = system: diarrhea caused by a chemotherapeutic agent in Balb/c mice; experiment: Examples 382-405 (Table 7): various administration modes of the CDK inhibitor, relief of diarrhea caused by a chemotherapeutic agent
Text: Balb/c mice were fed for 1 week, and then divided into groups. The experiment was divided into a control group, a chemotherapeutic agent group, CDK inhibitor groups (including an oral administration group of a CDK inhibitor, an intraperitoneal injection group of a CDK inhibitor, an intramuscular injection group of a CDK inhibitor, a local administration group of a CDK inhibitor), each of which comprised 10 mice, to perform the administration experiment, for which the administration dosage, mode, time and frequency were shown in Table 7. The control group: being administered with the same solvent as that used in the CDK inhibitor group (the time and mode were shown in Table 7), and then being injected/intragastrically administered with the same solvent as that used in the chemotherapeutic agent group (the administration mode was shown in Table 7): the chemotherapeutic agent group: being administered with the same solvent as that used in the CDK inhibitor group (the time and mode were shown in Table 7), and then being injected/intragastrically administered with the chemotherapeutic agent (the type, administration mode and dosage were shown in Table 7): the oral administration group of the CDK inhibitor: being intragastrically administered with the CDK inhibitor (the time was shown in Table 7), and then being administered with the chemotherapeutic agent (the mode and dosage were shown in Table 7): the intraperitoneal injection group of the CDK inhibitor: being intraperitoneally injected with the CDK inhibitor (the time was shown in Table 7), and then being administered with the chemotherapeutic agent (the mode and dosage were shown in Table 7): the intramuscular injection group of the CDK inhibitor: being intramuscularly injected with the CDK inhibitor (the time was shown in Table 7), and then being administered with the chemotherapeutic agent (the mode and dosage were shown in Table 7); and the local administration group of the CDK inhibitor: the hair on the abdomen of mice was shaved (about 2 cm*2 cm), being applied with the CDK inhibitor (the time was shown in Table 7), and then being administered with the chemotherapeutic agent (the mode and dosage were shown in Table 7).
The diarrhea grading of mice was observed and recorded every day.

CN(C)C(=O)c1cc2cnc(Nc3ccc(N4CCNCC4)cn3)nc2n1C1CCCC1 [Ribociclib]
Relative remission rate ([1]; Example 243, Methotrexate (MTX) intravenous injection 300 mg/kg single, CDK inhibitor oral 125 mg/kg single, 0.5 h before, cycle 7 days): 80% | Relative remission rate ([1]; Example 244, Methotrexate (MTX) intravenous injection 300 mg/kg single, CDK inhibitor oral 125 mg/kg single, 4 h before, cycle 7 days): 60% | Relative remission rate ([1]; Example 245, Methotrexate (MTX) intravenous injection 300 mg/kg single, CDK inhibitor oral 125 mg/kg single, 8 h before, cycle 7 days): 80% | Relative remission rate ([1]; Example 246, Methotrexate (MTX) intravenous injection 300 mg/kg single, CDK inhibitor oral 125 mg/kg single, 12 h before, cycle 7 days): 40% | Relative remission rate ([1]; Example 247, Methotrexate (MTX) intravenous injection 300 mg/kg single, CDK inhibitor oral 125 mg/kg single, 24 h before, cycle 7 days): 60% | Relative remission rate ([1]; Example 248, Methotrexate (MTX) intravenous injection 300 mg/kg single, CDK inhibitor oral 125 mg/kg single, 48 h before, cycle 7 days): 0% | Relative remission rate ([1]; Example 251, Methotrexate (MTX) intraperitoneal injection 260 mg/kg single, CDK inhibitor oral 200 mg/kg single, 12 h before, cycle 7 days): 50% | Relative remission rate ([1]; Example 252, Methotrexate (MTX) intraperitoneal injection 260 mg/kg single, CDK inhibitor oral 200 mg/kg single, 48 h before, cycle 7 days): 0% | Relative remission rate ([1]; Example 269, Vinorelbine (NVB) oral administration 15 mg/kg single, CDK inhibitor oral 100 mg/kg single, 24 h before, cycle 11 days): 50% | Relative remission rate ([2]; Example 352, Etoposide and cisplatin intraperitoneal injection 50 (E) 5 (Cis) mg/kg single, CDK inhibitor intravenous injection 125 mg/kg single, 0.5 h before, cycle 7 days): 10% | Relative remission rate ([2]; Example 352, Etoposide and cisplatin intraperitoneal injection 50 (E) 5 (Cis) mg/kg single, CDK inhibitor oral 125 mg/kg single, 0.5 h before, cycle 7 days): 40% | Relative remission rate ([2]; Example 353, Etoposide and cisplatin intraperitoneal injection 50 (E) 5 (Cis) mg/kg single, CDK inhibitor intravenous injection 125 mg/kg single, 4 h before, cycle 7 days): 10% | Relative remission rate ([2]; Example 353, Etoposide and cisplatin intraperitoneal injection 50 (E) 5 (Cis) mg/kg single, CDK inhibitor oral 125 mg/kg single, 4 h before, cycle 7 days): 40% | Relative remission rate ([2]; Example 354, Etoposide and cisplatin intraperitoneal injection 50 (E) 5 (Cis) mg/kg single, CDK inhibitor intravenous injection 125 mg/kg single, 8 h before, cycle 7 days): 10% | Relative remission rate ([2]; Example 354, Etoposide and cisplatin intraperitoneal injection 50 (E) 5 (Cis) mg/kg single, CDK inhibitor oral 125 mg/kg single, 8 h before, cycle 7 days): 60% | Relative remission rate ([2]; Example 355, Etoposide and cisplatin intraperitoneal injection 50 (E) 5 (Cis) mg/kg single, CDK inhibitor intravenous injection 125 mg/kg single, 12 h before, cycle 7 days): 20% | Relative remission rate ([2]; Example 355, Etoposide and cisplatin intraperitoneal injection 50 (E) 5 (Cis) mg/kg single, CDK inhibitor oral 125 mg/kg single, 12 h before, cycle 7 days): 60% | Relative remission rate ([2]; Example 356, Etoposide and cisplatin intraperitoneal injection 50 (E) 5 (Cis) mg/kg single, CDK inhibitor intravenous injection 125 mg/kg single, 24 h before, cycle 7 days): 10% | Relative remission rate ([2]; Example 356, Etoposide and cisplatin intraperitoneal injection 50 (E) 5 (Cis) mg/kg single, CDK inhibitor oral 125 mg/kg single, 24 h before, cycle 7 days): 50% | Relative remission rate ([2]; Example 359, Carboplatin (CBP) intraperitoneal injection 120 mg/kg single, CDK inhibitor intravenous injection 200 mg/kg single, 0.5 h before, cycle 10 days): 20% | Relative remission rate ([2]; Example 359, Carboplatin (CBP) intraperitoneal injection 120 mg/kg single, CDK inhibitor oral 200 mg/kg single, 0.5 h before, cycle 10 days): 60% | Relative remission rate ([2]; Example 360, Carboplatin (CBP) intraperitoneal injection 120 mg/kg single, CDK inhibitor intravenous injection 200 mg/kg single, 4 h before, cycle 10 days): 20% | Relative remission rate ([2]; Example 360, Carboplatin (CBP) intraperitoneal injection 120 mg/kg single, CDK inhibitor oral 200 mg/kg single, 4 h before, cycle 10 days): 80% | Relative remission rate ([2]; Example 361, Carboplatin (CBP) intraperitoneal injection 120 mg/kg single, CDK inhibitor intravenous injection 200 mg/kg single, 8 h before, cycle 10 days): 10% | Relative remission rate ([2]; Example 361, Carboplatin (CBP) intraperitoneal injection 120 mg/kg single, CDK inhibitor oral 200 mg/kg single, 8 h before, cycle 10 days): 60% | Relative remission rate ([2]; Example 362, Carboplatin (CBP) intraperitoneal injection 120 mg/kg single, CDK inhibitor intravenous injection 200 mg/kg single, 12 h before, cycle 10 days): 10% | Relative remission rate ([2]; Example 362, Carboplatin (CBP) intraperitoneal injection 120 mg/kg single, CDK inhibitor oral 200 mg/kg single, 12 h before, cycle 10 days): 60% | Relative remission rate ([2]; Example 363, Carboplatin (CBP) intraperitoneal injection 120 mg/kg single, CDK inhibitor intravenous injection 200 mg/kg single, 24 h before, cycle 10 days): 10% | Relative remission rate ([2]; Example 363, Carboplatin (CBP) intraperitoneal injection 120 mg/kg single, CDK inhibitor oral 200 mg/kg single, 24 h before, cycle 10 days): 80% | Relative remission rate ([2]; Example 376, Gemcitabine (GEM) oral administration 300 mg/kg single, CDK inhibitor intravenous injection 100 mg/kg single, 24 h before, cycle 8 days): 20% | Relative remission rate ([2]; Example 376, Gemcitabine (GEM) oral administration 300 mg/kg single, CDK inhibitor oral 100 mg/kg single, 24 h before, cycle 8 days): 60% | relief of diarrhea by oral administration and injection administration ([2]; diarrhea caused by etoposide, etoposide in combination with cisplatin, carboplatin, gemcitabine, gemcitabine in combination with carboplatin, and topotecan, oral administration has the most significant effect): effectively relieve diarrhea | Relative remission rate of other administration mode ([3]; Example 389, Carboplatin (CBP) intraperitoneal injection 120 mg/kg single, CDK inhibitor intraperitoneal injection 200 mg/kg single, 0.5 h before, cycle 10 days): 10% | Relative remission rate of oral administration ([3]; Example 389, Carboplatin (CBP) intraperitoneal injection 120 mg/kg single, CDK inhibitor oral 200 mg/kg single, 0.5 h before, cycle 10 days): 30% | Relative remission rate of other administration mode ([3]; Example 390, Carboplatin (CBP) intraperitoneal injection 120 mg/kg single, CDK inhibitor intraperitoneal injection 200 mg/kg single, 4 h before, cycle 10 days): 10% | Relative remission rate of oral administration ([3]; Example 390, Carboplatin (CBP) intraperitoneal injection 120 mg/kg single, CDK inhibitor oral 200 mg/kg single, 4 h before, cycle 10 days): 50% | Relative remission rate of other administration mode ([3]; Example 391, Carboplatin (CBP) intraperitoneal injection 120 mg/kg single, CDK inhibitor intraperitoneal injection 200 mg/kg single, 8 h before, cycle 10 days): 10% | Relative remission rate of oral administration ([3]; Example 391, Carboplatin (CBP) intraperitoneal injection 120 mg/kg single, CDK inhibitor oral 200 mg/kg single, 8 h before, cycle 10 days): 50% | Relative remission rate of other administration mode ([3]; Example 392, Carboplatin (CBP) intraperitoneal injection 120 mg/kg single, CDK inhibitor intraperitoneal injection 200 mg/kg single, 12 h before, cycle 10 days): 20% | Relative remission rate of oral administration ([3]; Example 392, Carboplatin (CBP) intraperitoneal injection 120 mg/kg single, CDK inhibitor oral 200 mg/kg single, 12 h before, cycle 10 days): 40% | Relative remission rate of other administration mode ([3]; Example 393, Carboplatin (CBP) intraperitoneal injection 120 mg/kg single, CDK inhibitor intraperitoneal injection 200 mg/kg single, 24 h before, cycle 10 days): 10% | Relative remission rate of oral administration ([3]; Example 393, Carboplatin (CBP) intraperitoneal injection 120 mg/kg single, CDK inhibitor oral 200 mg/kg single, 24 h before, cycle 10 days): 40% | Relative remission rate of other administration mode ([3]; Example 401, Gemcitabine (GEM) oral administration 300 mg/kg single, CDK inhibitor local administration 100 mg/kg single, 24 h before, cycle 8 days): 20% | Relative remission rate of oral administration ([3]; Example 401, Gemcitabine (GEM) oral administration 300 mg/kg single, CDK inhibitor oral 100 mg/kg single, 24 h before, cycle 8 days): 50% | relief of diarrhea by oral, injection and local administration ([3]; diarrhea caused by docetaxel, carboplatin, gemcitabine, and gemcitabine plus carboplatin, under certain conditions, effect of oral administration most significant): can relieve diarrhea

— US20240293413A1, “COMPOUND AND METHOD FOR TREATING CHEMOTHERAPY-RELATED GASTROINTESTINAL SIDE EFFECTS” (ONQUALITY PHARMACEUTICALS CHINA LTD., priority 2021, published 2024)
